Assay results published in patent publication US20120087968A1, “Antimicrobial Packaging Material and Methods of Making and Using the Same” (CRYOVAC, INC., priority 2010, published 2012).

How the values were obtained:
[1] = system: E. coli counts / microbial contamination in beef purge; assay: Beef purge study of LAE materials (aerobic plate count); format: cell-based; details: 0.5 g in 10 mL beef purge
Description: About 30 mL of purge was isolated from two beef tenderloin packages and transferred to three test tubes (10 mL/tube). As set forth in Table 5 below, 0.5 g LAE HCl was added to the purge in sample 5 and 0.5 g LAE monolaurate was added to the purge in sample 6. Sample 7 was the positive control and contained no LAE derivative.
The samples were mixed using a vortex mixer and E. coli counts were determined by plating about 1.0 mL on aerobic plate count 3M Petrifilm™ plates for time 0 readings. The test tubes were then stored in a refrigerator (4° C.) and E. coli counts were determined by plating about 1.0 mL on aerobic plate count 3M Petrifilm™ at 24 and 48 hours. As set forth in Table 6, below, both LAE HCl and LAE Monolaurate eliminated over 99% of the microbial contamination at the 24 and 48 hour time points.

[2] = system: E. coli (strain ATCC 4157); assay: Nutrient broth study of LAE materials (aerobic plate count of E. coli culture); format: cell-based; details: 0.5 g in 50 mL E. coli broth culture; for Aerobe Count Trial 1 CFU/g / Aerobe Count Trial 1 Log CFU/g / Aerobe Count Trial 1 Mean Log CFU/g / Aerobe Count Trial 2 CFU/g / Aerobe Count Trial 2 Log CFU/g / Aerobe Count Trial 2 Mean Log CFU/g: 45° C.; for growth of bacteria: over the 48 hour time period
Description: A culture of Difco nutrient broth (available from Weber Scientific, Hamilton, N.J., United States of America) and E. coli (strain ATCC® 4157™ KWIK STIK™, available from MicroBioLogics, Inc., St. Cloud, Minn., United States of America) was prepared by adding 1 tube of the E. coli to 400 mL of broth medium and incubating overnight at 37° C. Particularly, sample 1 was the positive control, sample 2 contained 0.5 g LAE HCl, sample 3 contained 0.5 g LAE monolaurate, and Sample 4 was the negative control.
Samples 1-4 were incubated at 45° C. and the number of E. coli counts was determined by plating about 1.0 mL of each sample onto aerobic plate count 3M Petrifilm™ plates (available from 3M Microbiology Products, St. Paul, Minn., United States of America) at 0, 24, and 48 hour time points. The experiments were conducted in duplicate.

SMILES | % Reduction ([1]; 0 hrs) [%] | Avg. CFU/g ([1]; 0 hrs) [CFU/g] | Log CFU/g Mean ([1]; 0 hrs) [Log CFU/g] | % Reduction ([1]; 24 hrs at 4° C.) [%] | Avg. CFU/g ([1]; 24 hrs at 4° C.) [CFU/g] | Log CFU/g Mean ([1]; 24 hrs at 4° C.) [Log CFU/g] | % Reduction ([1]; 48 hrs at 4° C.) [%] | Avg. CFU/g ([1]; 48 hrs at 4° C.) [CFU/g] | Log CFU/g Mean ([1]; 48 hrs at 4° C.) [Log CFU/g] | Aerobe Count Trial 1 CFU/g ([2]; 0 hrs) [CFU/g] | Aerobe Count Trial 1 Log CFU/g ([2]; 0 hrs) [Log CFU/g] | Aerobe Count Trial 1 Mean Log CFU/g ([2]; 0 hrs) [Log CFU/g] | Aerobe Count Trial 2 CFU/g ([2]; 0 hrs) [CFU/g] | Aerobe Count Trial 2 Log CFU/g ([2]; 0 hrs) [Log CFU/g] | Aerobe Count Trial 2 Mean Log CFU/g ([2]; 0 hrs) [Log CFU/g] | Aerobe Count Trial 1 CFU/g ([2]; 24 hrs) [CFU/g] | Aerobe Count Trial 1 Log CFU/g ([2]; 24 hrs) [Log CFU/g] | Aerobe Count Trial 1 Mean Log CFU/g ([2]; 24 hrs) [Log CFU/g] | Aerobe Count Trial 2 CFU/g ([2]; 24 hrs) [CFU/g] | Aerobe Count Trial 2 Log CFU/g ([2]; 24 hrs) [Log CFU/g] | further results
CCCCCCCCCCCC(=O)N[C@@H](CCCN=C(N)N)C(=O)OCC.Cl [LAE HCl, ethyl n-lauroyl-L-arginate hydrochloride salt] | 99.766 | <1.000E+02 | <2.00 | 99.990 | <1.000E+02 | <2.00 | 99.999 | <1.000E+02 | <2.00 | 1 | 0.00 | 0 | 1 | 0.00 | 0 | 1 | 0.00 | 0 | 1 | 0.00 | Aerobe Count Trial 2 Mean Log CFU/g ([2]; 24 hrs): 0 Log CFU/g; Aerobe Count Trial 1 CFU/g ([2]; 48 hrs): 1 CFU/g; Aerobe Count Trial 1 Log CFU/g ([2]; 48 hrs): 0.00 Log CFU/g; Aerobe Count Trial 1 Mean Log CFU/g ([2]; 48 hrs): 0 Log CFU/g; Aerobe Count Trial 2 CFU/g ([2]; 48 hrs): 1 CFU/g; Aerobe Count Trial 2 Log CFU/g ([2]; 48 hrs): 0.00 Log CFU/g; Aerobe Count Trial 2 Mean Log CFU/g ([2]; 48 hrs): 0 Log CFU/g; growth of bacteria [2]: no growth of bacteria
CCCCCCCCCCCC(=O)N[C@@H](CCCNC(=N)N)C(=O)OCC.CCCCCCCCCCCC(=O)O [LAE monolaurate, ethyl n-lauroyl-L-arginate laurate complex] | 8.798 | 3.890E+04 | 4.59 | 90.880 | 8.913E+04 | 4.95 | 99.960 | 2.818E+03 | 3.45 | 1 | 0.00 | 0 | 1 | 0.00 | 0 | 1 | 0.00 | 0 | 1 | 0.00 | Aerobe Count Trial 2 Mean Log CFU/g ([2]; 24 hrs): 0 Log CFU/g; Aerobe Count Trial 1 CFU/g ([2]; 48 hrs): 1 CFU/g; Aerobe Count Trial 1 Log CFU/g ([2]; 48 hrs): 0.00 Log CFU/g; Aerobe Count Trial 1 Mean Log CFU/g ([2]; 48 hrs): 0 Log CFU/g; Aerobe Count Trial 2 CFU/g ([2]; 48 hrs): 1 CFU/g; Aerobe Count Trial 2 Log CFU/g ([2]; 48 hrs): 0.00 Log CFU/g; Aerobe Count Trial 2 Mean Log CFU/g ([2]; 48 hrs): 0 Log CFU/g; growth of bacteria [2]: no growth of bacteria
